Columns and labels:
h P2X3 = target: T1, h P2X3 (Homo sapiens, UniProt P56373); experiment: In vitro electrophysiology assay for P2X3 (automated whole-cell patch clamp, Sophion Qube); type: cell-based; conditions: range of activity
T1 sequence (P56373 1-397): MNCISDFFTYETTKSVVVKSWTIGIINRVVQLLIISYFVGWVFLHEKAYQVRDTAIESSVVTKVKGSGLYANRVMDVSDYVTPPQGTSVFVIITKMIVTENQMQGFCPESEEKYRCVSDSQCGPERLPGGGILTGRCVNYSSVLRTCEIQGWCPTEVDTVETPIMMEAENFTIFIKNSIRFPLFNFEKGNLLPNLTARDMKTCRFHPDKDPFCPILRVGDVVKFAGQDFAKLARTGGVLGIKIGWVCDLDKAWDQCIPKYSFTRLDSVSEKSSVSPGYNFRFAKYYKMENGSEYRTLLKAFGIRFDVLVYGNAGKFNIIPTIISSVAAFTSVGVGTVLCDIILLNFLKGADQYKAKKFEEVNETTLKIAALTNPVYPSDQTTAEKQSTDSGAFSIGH
Outline: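 Whole-cell automated patch clamp at room temperature, cells held at −60 mV; after two 800 nM α,β-MeATP baseline responses, antagonist preincubated 10 min then co-applied with 800 nM α,β-MeATP. Inhibition of peak current vs second agonist response; IC50 from 10-concentration curves, one concentration per cell.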

h P2X2/3 = target: T2, h P2X2/3 (Homo sapiens, UniProt P56373+Q9UBL9); experiment: In vitro electrophysiology assay for P2X2/3 (same protocol, 10 μM ATP as agonist); type: cell-based; conditions: Table 7, range of activity
T2 sequence (P56373 1-397): T1 sequence (P56373 1-397)
T2 sequence (Q9UBL9 1-471): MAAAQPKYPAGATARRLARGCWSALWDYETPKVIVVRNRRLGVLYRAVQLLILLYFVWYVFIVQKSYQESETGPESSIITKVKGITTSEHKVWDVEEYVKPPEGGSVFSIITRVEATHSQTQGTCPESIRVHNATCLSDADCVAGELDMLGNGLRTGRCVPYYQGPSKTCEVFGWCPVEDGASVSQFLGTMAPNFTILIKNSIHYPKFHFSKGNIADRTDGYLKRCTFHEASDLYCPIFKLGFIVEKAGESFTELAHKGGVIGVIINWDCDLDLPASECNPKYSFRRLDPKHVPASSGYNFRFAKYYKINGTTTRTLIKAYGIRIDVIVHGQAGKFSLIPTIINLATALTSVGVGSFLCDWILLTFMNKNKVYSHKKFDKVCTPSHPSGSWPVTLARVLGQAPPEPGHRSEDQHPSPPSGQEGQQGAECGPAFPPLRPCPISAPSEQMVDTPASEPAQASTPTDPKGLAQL

[1] = Table 6, inhibition of P2X3 current, agonist α,β-MeATP (800 nM)

COc1cc(-c2ncc(C)cn2)cc2c(NCc3ccc(C(F)(F)F)nc3)ncnc12 [Example 155]
IC50 (h P2X3; [1]): < 0.316 µM | IC50 (h P2X3; Table 7): < 0.316 µM | IC50 (h P2X2/3): 0.316 to 3.16 µM

COc1cc(-c2ncc(C)cc2F)cc2c(N[C@H](C)c3noc(C)n3)ncnc12 [Example 157, 6-(3-fluoro-5-methyl-2-pyridyl)-8-methoxy-N-[(1R)-1-(5-methyl-1,2,4-oxadiazol-3-yl)ethyl]quinazolin-4-amine]
IC50 (h P2X3; [1]): < 0.316 µM | IC50 (h P2X3; Table 7): < 0.316 µM | IC50 (h P2X2/3): 3.16 to 31.6 µM

COc1cc(-c2ccc(C)cn2)cc2c(N[C@H](C)c3ccn(C)n3)ncnc12 [Example 159, 8-methoxy-N-[(1R)-1-(1-methylpyrazol-3-yl)ethyl]-6-(5-methyl-2-pyridyl)quinazolin-4-amine]
IC50 (h P2X3; [1]): < 0.316 µM | IC50 (h P2X3; Table 7): < 0.316 µM | IC50 (h P2X2/3): 3.16 to 31.6 µM
